Test results taken from PMC10255569, “Discovery of Peptidic Ligands against the SARS-CoV-2 Spike Protein and Their Use in the Development of a Highly Sensitive Personal Use Colorimetric COVID-19 Biosensor” (ACS Sensors, 2023).
“Also recorded” adds a separate entry of the source. Non-standard residues stand in square brackets, D forms with d. Residues, ends and D or L forms follow the SMILES beside them. *: point of attachment. Biotin = O=C1N[C@H]2[C@H](CS[C@H]2CCCCC(=O)*)N1; Phe(3,5-F2) = N[C@@H](Cc1cc(F)cc(F)c1)C(=O)O; hCit = NC(=O)NCCCC[C@H](N)C(=O)O; Aad = N[C@@H](CCCC(=O)O)C(=O)O; Nva = CCC[C@H](N)C(=O)O; AEEA = NCCOCCOCC(=O)O

Molecular target: Delta-variant SARS-CoV-2 spike protein receptor-binding domain (L452R, T478K) (Severe acute respiratory syndrome coronavirus 2, UniProt P0DTC2, L452R/T478K)
Parameters: species or system SARS-CoV-2 Delta variant

In the case of `CCC[C@H](NC(=O)[C@H](CCCCNC(N)=O)NC(=O)[C@H](CCCNC(=N)N)NC(=O)[C@H](Cc1ccc(OC)cc1)NC(=O)[C@H](N)Cc1c[nH]cn1)C(=O)N[C@@H](CCCNC(=N)N)C(=O)N[C@@H](Cc1cc(F)cc(F)c1)C(=O)N[C@@H](Cc1ccccc1)C(=O)N[C@@H](CCCC(=O)O)C(=O)NCCOCCOCC(=O)NCCOCCOCC(=O)N[C@@H](CCCCNC(=O)CCCC[C@@H]1SC[C@@H]2NC(=O)N[C@@H]21)C(N)=O` [L10-2] (H-[dH]Y(Me)R[hCit][Nva]R[Phe(3,5-F2)]F[Aad][AEEA][AEEA]K(Biotin)-NH2), the RMax was 0.11 ± 0.004 and the “binding to the Delta variant of spike protein RBD (in words)” value was “able to bind to the Delta variant of spike protein RBD with similar affinity; also recorded: can bind to S-protein from the SARS-CoV-2 Delta variant”.
